The values that follow come from US5332726A, “Antithrombotic peptides and pseudopeptides” (Rhone-Poulenc Rorer Pharmaceuticals Inc., priority 1992, dated 1994).

One experiment concerns platelet aggregation. The following applies: cited from earlier work.
The target of experiment [1] is fixed activated platelets (Homo sapiens, UniProt P05106+P08514). Description: Platelet Aggregation Assay (fibrinogen-mediated aggregation of fixed-activated platelets). Type of experiment: cell-based. Particulars: for IC50: fixed activated platelets, human fibrinogen 250 μg/ml, read-out: Inhibition of Fibrinogen Mediated Platelet Aggregation IC50; for inhibition at 25 µM: read-out: Inhibition of Fibrinogen Mediated Platelet Aggregation % inhibition at 25 μM; for inhibition at 100 µM: read-out: Inhibition of Fibrinogen Mediated Platelet Aggregation % inhibition at 100 μM. An outline of the steps:
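Activated platelets fixed with 0.50% paraformaldehyde for 30 min at room temperature. They were then pre-incubated 1 min with test compound before aggregation was triggered by human fibrinogen at 250 μg/ml final. Aggregation recorded on an aggregometer.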

The target of experiment [2] is thrombin-stimulated platelets (Homo sapiens, UniProt P05106+P08514). Description: Fibrinogen-Binding Assay (125I-fibrinogen binding to platelets). Particulars: 125I-fibrinogen 0.176 μmol/liter, thrombin-stimulated platelets; read-out: Inhibition of 125I-Fibrinogen Binding to Platelets IC50.

Residues, ends and D or L forms follow the SMILES beside them. A value given as a limit tells only on which side of the number the result lay.

Chain of thrombin-stimulated platelets (P08514 32-1039): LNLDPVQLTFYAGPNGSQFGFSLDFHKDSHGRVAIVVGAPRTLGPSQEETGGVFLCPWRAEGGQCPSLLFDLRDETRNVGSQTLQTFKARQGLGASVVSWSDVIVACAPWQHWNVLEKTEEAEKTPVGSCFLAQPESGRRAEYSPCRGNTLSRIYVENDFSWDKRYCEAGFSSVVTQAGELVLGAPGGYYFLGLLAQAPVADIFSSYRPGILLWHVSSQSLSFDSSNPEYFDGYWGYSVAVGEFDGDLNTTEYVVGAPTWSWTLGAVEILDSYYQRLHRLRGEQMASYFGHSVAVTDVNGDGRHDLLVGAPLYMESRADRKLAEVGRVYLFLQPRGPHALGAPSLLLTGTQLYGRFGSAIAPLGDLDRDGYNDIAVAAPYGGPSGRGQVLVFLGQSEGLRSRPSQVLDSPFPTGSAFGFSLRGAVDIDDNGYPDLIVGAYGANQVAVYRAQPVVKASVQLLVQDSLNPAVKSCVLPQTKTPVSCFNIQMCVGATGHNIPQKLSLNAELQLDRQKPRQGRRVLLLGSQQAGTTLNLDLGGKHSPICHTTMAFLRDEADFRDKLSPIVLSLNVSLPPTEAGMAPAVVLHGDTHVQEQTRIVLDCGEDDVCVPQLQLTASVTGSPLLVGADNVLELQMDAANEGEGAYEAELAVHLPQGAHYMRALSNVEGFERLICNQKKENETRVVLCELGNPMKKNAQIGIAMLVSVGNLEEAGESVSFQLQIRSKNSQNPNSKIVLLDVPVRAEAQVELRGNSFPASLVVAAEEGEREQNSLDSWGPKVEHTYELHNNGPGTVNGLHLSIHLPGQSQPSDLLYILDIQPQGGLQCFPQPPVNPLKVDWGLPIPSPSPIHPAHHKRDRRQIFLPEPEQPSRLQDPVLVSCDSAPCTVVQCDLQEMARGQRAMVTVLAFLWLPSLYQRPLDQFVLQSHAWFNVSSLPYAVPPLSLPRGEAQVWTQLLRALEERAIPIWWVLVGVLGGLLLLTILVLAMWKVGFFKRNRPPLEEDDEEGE
Chain of thrombin-stimulated platelets (P05106 27-788): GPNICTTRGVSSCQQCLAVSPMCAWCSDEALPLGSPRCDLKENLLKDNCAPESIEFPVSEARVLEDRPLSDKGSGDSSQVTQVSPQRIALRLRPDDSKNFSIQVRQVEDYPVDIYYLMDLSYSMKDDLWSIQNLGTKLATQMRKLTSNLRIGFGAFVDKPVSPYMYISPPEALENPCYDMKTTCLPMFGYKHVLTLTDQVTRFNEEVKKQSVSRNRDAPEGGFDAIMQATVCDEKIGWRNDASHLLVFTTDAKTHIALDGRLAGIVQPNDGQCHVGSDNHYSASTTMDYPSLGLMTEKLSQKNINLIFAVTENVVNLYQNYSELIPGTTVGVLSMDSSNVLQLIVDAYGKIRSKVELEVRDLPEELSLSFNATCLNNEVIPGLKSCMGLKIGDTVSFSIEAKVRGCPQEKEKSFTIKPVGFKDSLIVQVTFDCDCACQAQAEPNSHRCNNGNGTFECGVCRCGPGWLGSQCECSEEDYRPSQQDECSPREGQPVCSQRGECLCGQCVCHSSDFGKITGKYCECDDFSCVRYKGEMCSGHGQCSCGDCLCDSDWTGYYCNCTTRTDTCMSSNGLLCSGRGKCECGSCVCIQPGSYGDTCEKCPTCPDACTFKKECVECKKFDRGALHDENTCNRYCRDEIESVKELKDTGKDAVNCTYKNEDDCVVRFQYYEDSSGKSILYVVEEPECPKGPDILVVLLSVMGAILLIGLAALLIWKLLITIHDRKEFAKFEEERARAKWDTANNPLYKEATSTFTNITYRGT
Chain of fixed activated platelets (P08514 32-1039): as the sequence (P08514 32-1039) above
Chain of fixed activated platelets (P05106 27-788): as the sequence (P05106 27-788) above

arg-gly-asp-ser: the “inhibiting thrombin-induced platelet aggregation” value in the experiment with platelet aggregation was “capable of inhibiting thrombin-induced platelet aggregation”.
For gly-arg-gly-asp-ser, the “inhibiting thrombin-induced platelet aggregation” value in the experiment with platelet aggregation was “capable of inhibiting thrombin-induced platelet aggregation”.
With `CCN(CC(=O)N[C@@H](CC(=O)O)C(=O)N[C@@H](Cc1ccccc1)C(=O)O)C(=O)CCCCCNC(=N)N` [6-Guanidinohexanoyl-N-ethylglycyl-L-aspartyl-L-phenylalanine], the IC50 – broadly, the concentration at which inhibition is half-maximal – in experiment [1] came out at 1.3 µM; in experiment [2], 0.2 µM. The inhibition (usually the share of the control response that was lost under treatment) at 25 µM in experiment [1] turned out to be 97%.
With `CC(C)[C@H](NC(=O)[C@H](CC(=O)O)NC(=O)[C@@H](N)CCCNC(=N)N)C(=O)O` [L-arginyl-L-aspartyl-L-valine] (H-Arg-Asp-Val-OH), the IC50 in experiment [1] was 100 µM; in experiment [2], more than 200 µM. Also, in experiment [1], the inhibition at 100 µM stood at 49%.
In the case of `N=C(N)NCCCCCCCCC(=O)N[C@@H](CC(=O)O)C(=O)NC(Cc1ccccc1)(Cc1ccccc1)C(=O)O` [9-Guanidinononanoyl-L-aspartyl-α-benzylphenylalanine], in experiment [1], the half-inhibitory concentration (IC50) is more than 25 µM and the inhibition at 25 µM came out at 10%. Moreover, in experiment [2], the IC50 was more than 200 µM.
For `N=C(N)NCCCCCCCC(=O)N[C@@H](CC(=O)O)C(=O)NCCCCNC(=N)N` [8-Guanidinooctanoyl-L-aspartyl-(des-carboxy)-L-arginine], in that order: 1.9 µM, 91% and 0.99 µM.
For `N=C(N)NCCCCC(=O)NCC(=O)N[C@@H](CC(=O)O)C(=O)NCCc1ccccc1` [N-(5-guanidinopentanoyl)glycyl-L-aspartylphenethylamide], in experiment [1], the IC50 was 2.1 µM and the inhibition at 100 µM amounted to 86%. In experiment [2], the IC50 stood at 20 µM.
Turning to `CC(C)CNC(=O)[C@H](CCCNC(=N)N)NC(=O)[C@H](CC(=O)O)NC(=O)CCCCCCCCNC(=N)N` [9-Guanidinononanoyl-L-aspartyl-L-arginine isobutyl amide], in experiment [1], the concentration for half-maximal inhibition (IC50) was determined as 2.2 µM and the inhibition at 25 µM stood at 89%. Moreover, the IC50 in experiment [2] is 3 µM.
For `CC(C)[C@H](NC(=O)[C@H](CC(=O)O)NC(=O)CN(C)C(=O)CCCNC(=N)N)C(=O)O` [4-Guanidinobutanoyl-L-sarcosyl-L-aspartyl-L-valine], in that order: 10.8 µM, 84% and 3.3 µM.
Consider `CC(C)[C@H](NC(=O)[C@H](CC(=O)O)NC(=O)CNC(=O)CCCCCNC(=N)N)C(=O)O` [6-Guanidinohexanoyl-glycyl-L-aspartyl-L-valine], for which, in experiment [1], the IC50 stood at 6.5 µM and the inhibition at 25 µM stood at 90%. Besides, the concentration for half-maximal inhibition (IC50) in experiment [2] was 1.4 µM.
For `CN(CC(=O)N[C@@H](CC(=O)O)C(=O)N[C@@H](Cc1c[nH]c2ccccc12)C(=O)O)C(=O)CCCCCNC(=N)N` [6-Guanidinohexanoyl-sarcosyl-L-aspartyl-L-tryptophan], in that order: 6.6 µM, 89% and 0.19 µM.
As to `N=C(N)NCCC[C@H](N)C(=O)NCC(=O)N[C@@H](CC(=O)O)C(=O)OCc1ccccc1` [L-arginylglycyl-L-aspartic acid α-benzyl ester], in experiment [1], the 50% inhibitory concentration (IC50) was found to be 14 µM and the inhibition at 100 µM worked out at 96%. Moreover, in experiment [2], the IC50 was found to be 25 µM.
Turning to `CC(C)[C@H](NC(=O)[C@H](CC(=O)O)NC(=O)CN(C)C(=O)CCCCNC(=N)N)C(=O)O` [5-Guanidinovaleroyl-sarcosyl-L-aspartyl-L-valine], in experiment [1], the 50% inhibitory concentration (IC50) turned out to be 0.52 µM and the inhibition at 25 µM is 94%. For the same compound, the half-inhibitory concentration (IC50) in experiment [2] came out at 1 µM.
